The values below come from US9902696B2, “1,4-substituted piperidine derivatives” (Cephalon, Inc., priority 2015, dated 2018).

Counter-ions that a name gives are not always drawn.

T1 sequence (P49327 whole entry): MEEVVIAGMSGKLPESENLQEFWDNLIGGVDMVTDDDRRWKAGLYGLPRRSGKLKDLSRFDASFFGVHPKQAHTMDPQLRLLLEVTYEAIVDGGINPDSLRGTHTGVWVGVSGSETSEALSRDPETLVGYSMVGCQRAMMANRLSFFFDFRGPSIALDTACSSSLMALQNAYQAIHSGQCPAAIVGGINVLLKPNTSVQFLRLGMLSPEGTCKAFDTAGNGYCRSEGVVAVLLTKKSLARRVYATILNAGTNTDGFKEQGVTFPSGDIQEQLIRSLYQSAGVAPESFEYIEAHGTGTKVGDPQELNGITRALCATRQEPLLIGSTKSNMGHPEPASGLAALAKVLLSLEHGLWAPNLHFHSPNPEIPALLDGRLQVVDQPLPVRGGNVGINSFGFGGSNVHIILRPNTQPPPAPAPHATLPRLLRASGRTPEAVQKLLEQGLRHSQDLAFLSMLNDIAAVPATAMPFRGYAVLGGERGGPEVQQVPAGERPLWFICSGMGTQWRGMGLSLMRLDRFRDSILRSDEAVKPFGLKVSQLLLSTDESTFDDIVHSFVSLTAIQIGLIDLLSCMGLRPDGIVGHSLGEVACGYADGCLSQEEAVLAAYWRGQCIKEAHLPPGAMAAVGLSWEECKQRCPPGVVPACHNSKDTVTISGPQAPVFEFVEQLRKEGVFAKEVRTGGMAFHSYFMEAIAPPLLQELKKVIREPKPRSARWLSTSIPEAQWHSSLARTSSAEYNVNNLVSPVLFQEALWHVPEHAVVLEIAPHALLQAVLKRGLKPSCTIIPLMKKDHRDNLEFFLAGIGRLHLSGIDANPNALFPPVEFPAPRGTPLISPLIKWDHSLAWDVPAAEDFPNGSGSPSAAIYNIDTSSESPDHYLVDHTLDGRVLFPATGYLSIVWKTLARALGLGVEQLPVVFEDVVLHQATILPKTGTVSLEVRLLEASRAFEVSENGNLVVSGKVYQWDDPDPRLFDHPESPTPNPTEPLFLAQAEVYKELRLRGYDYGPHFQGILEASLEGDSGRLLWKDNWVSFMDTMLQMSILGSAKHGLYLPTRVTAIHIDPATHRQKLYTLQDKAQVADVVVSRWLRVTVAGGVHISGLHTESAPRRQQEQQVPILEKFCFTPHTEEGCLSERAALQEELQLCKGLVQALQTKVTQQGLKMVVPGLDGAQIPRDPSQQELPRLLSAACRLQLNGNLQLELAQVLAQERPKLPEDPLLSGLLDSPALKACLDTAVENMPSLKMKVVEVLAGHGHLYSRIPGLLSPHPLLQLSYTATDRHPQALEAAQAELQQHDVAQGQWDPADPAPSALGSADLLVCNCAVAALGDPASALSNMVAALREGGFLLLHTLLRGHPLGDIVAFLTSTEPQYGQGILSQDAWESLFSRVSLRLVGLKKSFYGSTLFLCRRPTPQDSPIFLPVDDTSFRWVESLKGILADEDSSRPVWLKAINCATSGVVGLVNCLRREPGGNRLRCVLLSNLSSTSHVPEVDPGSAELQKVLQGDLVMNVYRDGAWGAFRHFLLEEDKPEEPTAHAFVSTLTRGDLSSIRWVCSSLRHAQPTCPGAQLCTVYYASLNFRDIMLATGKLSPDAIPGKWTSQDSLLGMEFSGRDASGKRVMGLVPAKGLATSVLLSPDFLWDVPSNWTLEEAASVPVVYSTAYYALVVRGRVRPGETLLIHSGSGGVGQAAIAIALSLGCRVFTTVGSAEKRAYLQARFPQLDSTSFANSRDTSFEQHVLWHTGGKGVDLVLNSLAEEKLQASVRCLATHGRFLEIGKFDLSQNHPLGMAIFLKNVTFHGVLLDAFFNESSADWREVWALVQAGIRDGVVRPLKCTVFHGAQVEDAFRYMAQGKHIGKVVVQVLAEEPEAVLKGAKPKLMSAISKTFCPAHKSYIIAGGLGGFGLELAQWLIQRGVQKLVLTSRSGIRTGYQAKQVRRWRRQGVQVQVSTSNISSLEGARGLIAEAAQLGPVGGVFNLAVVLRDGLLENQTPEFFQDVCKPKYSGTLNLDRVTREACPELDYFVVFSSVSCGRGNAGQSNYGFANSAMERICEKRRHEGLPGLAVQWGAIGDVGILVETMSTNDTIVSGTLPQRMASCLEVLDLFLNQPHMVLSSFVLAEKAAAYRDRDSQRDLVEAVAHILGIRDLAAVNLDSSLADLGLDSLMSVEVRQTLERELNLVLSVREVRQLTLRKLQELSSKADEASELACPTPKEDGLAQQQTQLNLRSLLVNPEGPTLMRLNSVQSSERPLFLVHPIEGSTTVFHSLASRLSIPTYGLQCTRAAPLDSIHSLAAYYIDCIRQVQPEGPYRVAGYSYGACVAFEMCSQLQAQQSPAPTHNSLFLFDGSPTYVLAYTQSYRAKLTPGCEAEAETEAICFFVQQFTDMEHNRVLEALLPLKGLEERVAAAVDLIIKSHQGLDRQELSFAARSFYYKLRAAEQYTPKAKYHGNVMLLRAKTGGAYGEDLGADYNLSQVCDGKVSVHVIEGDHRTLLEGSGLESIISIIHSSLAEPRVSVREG

The test addresses T1, recombinant human baculovirus-expressed GST-tagged FASN (Homo sapiens, UniProt P49327).
T1 construct: GST
The test can be described thus: FASN enzyme activity assay, fluorescence-based detection of CoA with CPM. It counts as biochemical. The following applies: 5 nM FASN, 150 μM NADPH, 10 μM acetyl-CoA, 25 μM malonyl-CoA, 90 minutes incubation; read-out: IC50 data for Compounds of Formulae I-V/V(a): Activity. An excerpt: FASN Enzyme activity may be determined by detecting coenzyme A (CoA), a product of FASN-catalyzed synthesis of palmitate from acetyl-CoA and malonyl-CoA with NADPH as a cofactor. The assay is fluorescence-based and measures the interaction of free CoA with 7-diethylamino-3-(4′-malemimidylphenyl)-4-methylcoumarin (CPM; Life Technologies, CA) as described in Chung et al (2008). The coumarin derivative CPM contains a thiol-reactive maleimide that becomes fluorescent upon interaction with the sulfhydryl group of CoA.
For the example compounds described herein, the reaction was performed in 384-well low volume non-binding plates (Corning, N.Y.) using recombinant human baculovirus-expressed GST-tagged FASN. The 20-μL assay mixture contained 50 mM HEPES (pH 7.5), 5 nM FASN, 150 μM NADPH (Sigma, St. Louis, Mo.), 10 μM acetyl-CoA (Sigma), 25 μM malonyl-CoA (Sigma) and test compound [diluted in dimethyl sulfoxide (DMSO); 0.5% DMSO final in assay after 100 nL addition]. See, Chung et al.; “A fluorescence-based thiol quantification assay for ultra-high-throughput screening for inhibitors of coenzyme A production,” Assay Drug Dev Tech 2008; 6:361-374.
The reaction was initiated by adding malonyl-CoA, followed by incubation for 90 minutes at […]. A stock solution of the CPM reagent was prepared in DMSO at […] and stored at […]. To detect CoA produced in the FASN reaction, the CPM stock was diluted to […] in 70% ethanol and added at 4 μL/well to the assay plate. The reaction mixture was then incubated for 30 minutes. Fluorescence was measured using the EnVision™ 2102 multi-label plate reader (PerkinElmer, Waltham, Mass.) utilizing a general dual mirror, a 390 nm excitation filter and a 530 nm emission filter. Data analysis was performed using ActivityBase (IDBS, Guilford, UK). IC50 values were calculated by plotting the percent inhibition versus log 10 of the concentration of the compound, and fitting to the nonlinear regression sigmoidal dose-response (variable slope) equation in XLFit (IDBS).
“1-{4-[4-(4-Methylisoquinolin-6-yl)-phenox]-piperidin-1-yl}-propan-1-one HCl [Example 457]”: the IC50 fell in the range of 1 to 99 nM.

Consider `Cc1c(-c2ccc(OC3CCN(C(=O)[C@H]4CCCO4)C(C)C3)cc2)ccc2cccnc12` (mixture of isomers) [Example 362, {2-Methyl-4-[4-(8-methylquinolin-7-yl)-phenoxy]-piperidin-1-yl}-(R)-tetrahydrofuran-2-yl-methanone, HCl], for which the IC50 was in the range of 1 to 99 nM. As for `CCC(=O)N1CCC(Oc2ccc(-c3ccc4cccnc4c3C)cc2)CC1C` (mixture of isomers) [Example 363, 1-{2-Methyl-4-[4-(8-methylquinolin-7-yl)-phenoxy]-piperidin-1-yl}-propan-1-one, HCl], the figure is 100 to 999 nM; as for `CCC(=O)N1CCC(Oc2ccc(-c3ccc4cccnc4c3C)cc2)CC1C` (mixture of isomers) [Example 364, 1-{2-Methyl-4-[4-(8-methylquinolin-7-yl)-phenoxy]-piperidin-1-yl}-propan-1-one, HCl], 100 to 999 nM; as for `CCC(=O)N1CCC(Oc2ccc(-c3ccc4cccnc4c3C)cc2)C(C)C1` (mixture of isomers) [Example 375, 1-{3-Methyl-4-[4-(8-methylquinolin-7-yl)-phenoxy]-piperidin-1-yl}-propan-1-one, TFA salt], 1 to 99 nM. With `C[C@H]1CCO[C@H]1C(=O)N1CCC(Oc2ccc(-c3cnc4ccccc4c3)cc2)CC1` (racemic) [Example 154, ((2R,3S)/(2S,3R)-3-Methyl-tetrahydrofuran-2-yl)-[4-(4-quinolin-3-yl-phenoxy)-piperidin-1-yl]-methanone, HCl], the IC50 lay within 1 to 99 nM. `C[C@@H]1C[C@H](C)[C@H](C(=O)N2CCC(Oc3ccc(-c4cnc5ccccc5c4)cc3)CC2)O1` (racemic) [Example 155, ((2R,3S,5R)/(2S,3R,5S)-3,5-Dimethyl-tetrahydrofuran-2-yl)-[4-(4-quinolin-3-yl-phenoxy)-piperidin-1-yl]-methanone, HCl]: the IC50 was in the range of 1000 to 10000 nM. Turning to `Cc1c(-c2ccc(O[C@H]3CCN4C(=O)CC[C@H]4C3)cc2)ccc2cccnc12` (racemic) [Example 355, (±)-(7S,8aS)-7-(4-(8-Methylquinolin-7-yl)phenoxy)hexahydroindolizin-3 (2H)-one], the IC50 was 1000 to 10000 nM. For `Cc1c(-c2ccc(O[C@@H]3CCN4C(=O)CC[C@H]4C3)cc2)ccc2cccnc12` (racemic) [Example 356, (±)-(7R,8aS)-7-(4-(8-Methylquinolin-7-yl)phenoxy)hexahydroindolizin-3(2H)-one], the IC50 was 1000 to 10000 nM. As for `Cc1c(-c2ccc(OC3CCN(C(=O)C4CC4)C(C)C3)cc2)ccc2cccnc12` (racemic) [Example 365, Cyclopropyl-{2-methyl-4-[4-(8-methylquinolin-7-yl)-phenoxy]-piperidin-1-yl}-methanone HCl], the IC50 lay within 1000 to 10000 nM. The figure for `Cc1c(-c2ccc(O[C@@H]3CCN(C(=O)[C@@H]4CCCO4)C[C@H]3F)cc2)ccc2cccnc12` (racemic) [Example 372, {(trans)-3-Fluoro-4-[4-(8-methylquinolin-7-yl)-phenoxy]-piperidin-1-yl}-(R)-tetrahydrofuran-2-yl-methanone, HCl] is 1 to 99 nM; for `CCC(=O)N1CC[C@H](Oc2ccc(-c3ccc4cccnc4c3C)cc2)[C@H](F)C1` (relative stereo) [Example 367, 1-{cis-3-Fluoro-4-[4-(8-methylquinolin-7-yl)-phenoxy]-piperidin-1-yl}-propan-1-one, HCl] it is 1000 to 10000 nM. In the case of `Cc1c(-c2ccc(O[C@H]3CCN(C(=O)C4CC4)C[C@H]3F)cc2)ccc2cccnc12` (relative stereo) [Example 368, Cyclopropyl-{cis-3-fluoro-4-[4-(8-methylquinolin-7-yl)-phenoxy]-piperidin-1-yl}-methanone, HCl], the IC50 was in the range of 1000 to 10000 nM. In the case of `CCC(=O)N1CC[C@@H](Oc2ccc(-c3ccc4cccnc4c3C)cc2)[C@H](F)C1` (relative stereo) [Example 373, 1-{trans-3-Fluoro-4-[4-(8-methylquinolin-7-yl)-phenoxy]-piperidin-1-yl}-propan-1-one, HCl], the IC50 was 100 to 999 nM. Take `Cc1c(-c2ccc(O[C@@H]3CCN(C(=O)C4CC4)C[C@H]3F)cc2)ccc2cccnc12` (relative stereo) [Example 374, Cyclopropyl-{trans-3-fluoro-4-[4-(8-methylquinolin-7-yl)-phenoxy]-piperidin-1-yl}-methanone, HCl]: the IC50 was in the range of 100 to 999 nM. `CCC(=O)N1CCC(Oc2ccc(-c3ccc4cccnc4c3)cc2)C1` (stereo in doubt) [Example 342, (S)-1-(3-(4-(Quinolin-7-yl)phenoxy)pyrrolidin-1-yl)propan-1-one, HCl]: the IC50 fell in the range of 1000 to 10000 nM.

For `Cc1ccc2ncccc2c1-c1ccc(OC2CCN(C(=O)C3CCCO3)CC2)cc1` (stereo in doubt) [Example 354, (R)-(4-(4-(6-Methylquinolin-5-yl)phenoxy)piperidin-1-yl)(tetrahydrofuran-2-yl)methanone], the IC50 lay in the range of 1 to 99 nM.

For the molecule `Cc1c(-c2ccc(OC3CCN(C(=O)C4CCCO4)CC3C)cc2)ccc2cccnc12` (stereo in doubt) [Example 377, {3-Methyl-4-[4-(8-methylquinolin-7-yl)-phenoxy]-piperidin-1-yl}-(R)-tetrahydrofuran-2-yl-methanone, TFA salt], the IC50 was 1 to 99 nM. As for `CCC(=O)N1CCC(Oc2ccc(-c3ccc4cnccc4c3)cc2)CC1` [Example 1, 1-[4-(4-Isoquinolin-6-yl-phenoxy)-piperidin-1-yl]-propan-1-one], the figure is 1 to 99 nM; as for `CCC(=O)N1CCC(Oc2ccc(-c3cnc4ccccc4c3)cc2)CC1` [Example 2, 1-[4-(4-Quinolin-3-yl-phenoxy)-piperidin-1-yl]-propan-1-one], 1 to 99 nM.

In the case of `CC(C)C(=O)N1CCC(Oc2ccc(-c3ccc4cccnc4c3)cc2)CC1` [Example 3, 2-Methyl-1-[4-(4-quinolin-7-yl-phenoxy)-piperidin-1-yl]-propan-1-one], the IC50 is 100 to 999 nM. On to `CCC(=O)N1CCC(Oc2ccc(-c3ccc4cccnc4c3)cc2)CC1` [Example 4, 1-[4-(4-Quinolin-7-yl-phenoxy)-piperidin-1-yl]-propan-1-one], for which the IC50 fell in the range of 1 to 99 nM. With `CC(C)(C)OC(=O)N1CCC(Oc2ccc(-c3cnc4ccccc4c3)cc2F)CC1` [Example 5, 4-(2-Fluoro-4-quinolin-3-yl-phenox)piperidine-1-carboxylic acid t-butyl ester], the IC50 was in the range of 1000 to 10000 nM.

As for `CCC(=O)N1CCC(Oc2ccc(-c3cnc4ccccc4c3)cc2F)CC1` [Example 6, 1-[4-(2-Fluoro-4-quinolin-3-yl-phenoxy)piperidin-1-yl]propan-1-one], the IC50 is 1 to 99 nM. As for `CC(C)C(=O)N1CCC(Oc2ccc(-c3cnc4ccccc4c3)cc2F)CC1` [Example 7, 1-[4-(2-Fluoro-4-quinolin-3-yl-phenoxy)-piperidin-1-yl]-2-methyl-propan-1-one], the IC50 is 1 to 99 nM. The figure for `CCC(=O)N1CCC(Oc2ccc(-c3ccc4occc4c3)cc2)CC1` [Example 8, 1-[4-(4-Benzofuran-5-yl-phenoxy)-piperidin-1-yl]-propan-1-one] is 100 to 999 nM. As to `CC(C)C(=O)N1CCC(Oc2ccc(-c3ccc4occc4c3)cc2)CC1` [Example 9, 1-[4-(4-Benzofuran-5-yl-phenoxy)-piperidin-1-yl]-2-methyl-propan-1-one], the IC50 was 1000 to 10000 nM.
